# Patent US11591596B2, “Compounds and compositions including phosphorothioated oligodeoxynucleotide, and methods of use thereof” (City of Hope, priority 2015, dated 2023)
# Test system: miR-126
# Assay: miR-126 expression in K562 and MV4-11 cells with miR-126 inhibitors or mimics
# Format: cell-based
# Details: 500 nM, 24 hours
# Experimental: FIGS. 26A-26E. Effective knockdown of miR-126 with miR-126 inhibitors conjugated with CpG, GpC and PS, and effective over-expression with miR-126 mimics in K562 and MV4-11 cells. K562 and MV4-11 cells were treated with miR-126 inhibitors conjugated with CpG, GpC, PS (FIGS. 26A-26B) or miR-126 mimics (615, 616 and 617) (FIGS. 26C-26D) (500 nM) for 24 hours, and miR-126 expression was measured in these cells. […] FIG. 26E) Tabulation of sequence set forth herein.
# Effective knockdown of miR-126 with miR-126 inhibitors conjugated with CpG, GpC and PS, and effective over-expression with miR-126 mimics in K562 and MV4-11 cells. K562 and MV4-11 cells were treated with miR-126 inhibitors conjugated with CpG, GpC, PS (FIGS. 26A-26B) or miR-126 mimics (615, 616 and 617) (FIGS. 26C-26D) (500 nM) for 24 hours, and miR-126 expression was measured in these cells.
substance,measurement,value
5′ G*G*T GCA TCG ATG CAGG*G*G* G*G (SEQ ID NO: 1) xxxxx mCmGmC mAmUmU mAmUmU mAmCmU mCmAmC mGmGmU mAmCmG mA (SEQ ID NO: 17) 3′ [CpG-anti-miR126],miR-126 expression (knockdown by inhibitors),very effective in reducing miR-126
